Test results from US20110136844A1, “METHODS FOR INHIBITING DYRK1A TO TREAT CENTRAL NERVOUS SYSTEM DISEASES AND DISORDERS” (MediProPharma, Inc., priority 2009, published 2011).
Marks after values point to notes of the source that are not given here.

What was measured:
[1] = Plasma pharmacokinetics after single dose in normal rats; assay type: in vivo, Sprague-Dawley rats; conditions: rat plasma, i.v. 10 mg/kg
Protocol: (§1) (IV) Pharmacokinetic Studies
(§2) The pharmacokinetic studies in Sprague-Dawley rats were performed using the protocols developed by WuXi AppTec (St. Paul, Minn., USA, and Shanghai, China. http://www.apptecls.com/).

[2] = Brain-plasma pharmacokinetics after single 10 mg/kg bolus i.v. injection in normal rats; assay type: in vivo, Sprague-Dawley rats; conditions: rat, 10 mg/kg i.v., the data is the value of AUC(inf)
Protocol: as §1, §2
The brain exposure of the compound of Example 1 is about […] higher than that required for inhibition of DYRK1A, with a Kd and IC50 at about 1 uM, or 280 ng/mL.

Co [1]: 4100 ng/mL | AUC0-t of Plasma ([2]; time 8 h): 2350^b ng · h/mL | AUC0-t of Plasma ([2]; time 24 h): 2350^b ng · h/mL
Compound: Cc1nc2c(c3c1[nH]c1ccccc13)C(=O)CC(C)(C)C2 [Example 1, 3,3,6-trimethyl-2,3,4,7-tetrahydroindolo[2,3-c]quinolin-1-one]
